The values that follow come from patent US12344595B2, “2-amino-n-phenyl-nicotinamides as NAV1.8 inhibitors” (Merck Sharp & Dohme LLC, priority 2018, dated 2025).

One may read the IC50 as the concentration needed to halve the response being measured. Read a high IC50 as a need for much substance.

The assay addresses human Nav1.8 (Homo sapiens (Human), UniProt Q9Y5Y9). In words: Nav1.8 Qube automated patch-clamp assay. The assay is classed as cell-based. Conditions: Nav1.8 Qube Assay; human Nav1.8 channels stably expressed in HEK 293 cells. The procedure:
Qube® Assay Experimental Procedure
Compounds were tested on human Nav1.8 and Nav1.5 channels stably expressed in human embryo kidney (HEK) 293 cells. Sodium current measurements on Qube® were conducted as follows: automated 384-well patch-clamp assays on the Qube® platform (Sophion Biosciences) were used to measure the inhibition of sodium flow through human Nav1.8 and Nav1.5 channels. Whole-cell voltage-clamp recordings were performed in QChips® (Sophion Biosciences) at room temperature. Nav1.8 current measurements on Qube® were obtained as follows: Nav1.8 currents were elicited with a 10 second 1 Hertz (Hz) pulse train from a holding potential of −90 millivolts (mV), delivered to the cells once per minute in the control condition (DMSO only) and after compound addition. The 1 hertz pulse train stimulation consisted of ten test pulses to 10 millivolt (mV) for 20 milliseconds (ms), each of which was followed by a 980 millisecond repolarization to −67 millivolts. At the end of the 10 second pulse train stimulation, a 5 second hyperpolarization step to −100 millivolt (mV) was used to recover Nav1.8 from fast inactivation. The peak currents elicited by the 1st and 10th test pulses were used to determine IC50 values for resting inhibition and inactivated state inhibition. Nav1.5 current measurements on Qube® were obtained as follows: Nav1.5 currents were elicited with a 20 second 3 Hertz pulse train in the control condition (DMSO only) and after compound addition. The pulse train consisted of sixty 20 millisecond test pulses to 0 millivolt from a holding potential of −80 millivolt (mV). The average peak currents elicited by the last 3 test pulses were used to determine IC50 values for Nav1.5 inhibition.
The following buffers were used for the Qube® recordings: External buffer for Nav1.8 Qube® recording: 150 NaCl, 2 CaCl2, 5 KCl, 1 Mg Cl2, 10 HEPES, 12 Dextrose; External buffer for Qube® Nav1.5 recording: 120 N-Methyl-D-Glucamine, 40 NaCl, 1 KCl, 2.7 CaCl2, 5 HEPES, 0.5 MgCl2; and Internal buffer for Qube® recording: 120 CsF, 30 CsCl, 10 EGTA, 5 HEPES, 5 NaF, 2 MgCl2.
For all Qube® experiments offline analysis was used to determine percent inhibition as a function of drug concentration. IC50 values were determined by fitting to the Hill equation.
(In general: In patch-clamp work, channel activity is measured electrically.)

The structures appear in SMILES notation.

human Nav1.8, sequence (Q9Y5Y9 whole entry): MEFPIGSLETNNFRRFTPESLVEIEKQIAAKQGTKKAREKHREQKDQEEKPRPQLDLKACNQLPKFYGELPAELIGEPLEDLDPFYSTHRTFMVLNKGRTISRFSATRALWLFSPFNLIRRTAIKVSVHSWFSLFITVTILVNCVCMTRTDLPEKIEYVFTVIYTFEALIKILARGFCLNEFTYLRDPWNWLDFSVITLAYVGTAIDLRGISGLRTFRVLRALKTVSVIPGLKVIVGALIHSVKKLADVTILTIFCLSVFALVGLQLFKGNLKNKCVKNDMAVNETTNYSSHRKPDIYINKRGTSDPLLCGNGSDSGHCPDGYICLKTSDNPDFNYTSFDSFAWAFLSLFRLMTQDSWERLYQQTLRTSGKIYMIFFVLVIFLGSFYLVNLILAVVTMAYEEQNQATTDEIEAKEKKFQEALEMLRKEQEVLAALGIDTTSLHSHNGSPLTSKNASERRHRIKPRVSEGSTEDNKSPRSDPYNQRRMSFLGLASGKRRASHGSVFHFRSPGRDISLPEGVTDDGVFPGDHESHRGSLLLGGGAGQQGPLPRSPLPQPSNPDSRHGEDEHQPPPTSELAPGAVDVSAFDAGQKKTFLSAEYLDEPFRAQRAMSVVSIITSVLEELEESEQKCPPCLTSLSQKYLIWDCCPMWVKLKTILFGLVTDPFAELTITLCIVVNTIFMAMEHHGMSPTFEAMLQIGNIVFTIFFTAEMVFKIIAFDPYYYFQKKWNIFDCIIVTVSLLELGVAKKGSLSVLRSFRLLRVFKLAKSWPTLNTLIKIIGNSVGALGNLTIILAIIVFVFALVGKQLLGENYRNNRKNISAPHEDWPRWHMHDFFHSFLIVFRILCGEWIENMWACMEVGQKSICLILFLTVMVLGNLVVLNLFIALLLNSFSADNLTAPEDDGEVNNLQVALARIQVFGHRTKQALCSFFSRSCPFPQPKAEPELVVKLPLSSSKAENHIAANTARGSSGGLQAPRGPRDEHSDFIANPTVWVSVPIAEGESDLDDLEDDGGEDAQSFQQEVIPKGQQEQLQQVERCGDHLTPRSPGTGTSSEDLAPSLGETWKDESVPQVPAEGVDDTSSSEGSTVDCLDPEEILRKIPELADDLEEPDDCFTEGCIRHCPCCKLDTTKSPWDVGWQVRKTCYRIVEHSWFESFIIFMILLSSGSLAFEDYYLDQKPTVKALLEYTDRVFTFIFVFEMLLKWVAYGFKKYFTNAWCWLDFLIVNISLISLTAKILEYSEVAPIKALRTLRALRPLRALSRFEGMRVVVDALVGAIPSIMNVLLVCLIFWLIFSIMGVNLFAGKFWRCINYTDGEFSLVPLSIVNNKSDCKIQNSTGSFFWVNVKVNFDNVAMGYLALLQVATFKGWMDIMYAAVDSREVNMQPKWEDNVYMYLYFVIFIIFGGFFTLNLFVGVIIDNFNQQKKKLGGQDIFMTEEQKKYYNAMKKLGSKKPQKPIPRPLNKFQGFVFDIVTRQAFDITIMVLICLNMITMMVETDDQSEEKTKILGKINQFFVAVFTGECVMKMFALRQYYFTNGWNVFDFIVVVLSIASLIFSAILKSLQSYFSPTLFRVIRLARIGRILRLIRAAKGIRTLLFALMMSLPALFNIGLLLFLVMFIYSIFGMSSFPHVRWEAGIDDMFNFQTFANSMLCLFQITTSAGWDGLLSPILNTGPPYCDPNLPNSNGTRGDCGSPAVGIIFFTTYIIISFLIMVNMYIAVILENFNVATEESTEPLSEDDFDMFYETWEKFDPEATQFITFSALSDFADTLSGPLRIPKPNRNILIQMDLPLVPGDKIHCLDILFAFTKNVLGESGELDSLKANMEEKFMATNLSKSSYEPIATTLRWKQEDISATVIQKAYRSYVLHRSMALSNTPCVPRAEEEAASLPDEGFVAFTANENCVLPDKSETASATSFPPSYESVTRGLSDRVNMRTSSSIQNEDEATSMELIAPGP

The compound `NS(=O)(=O)c1cccc(NC(=O)c2cc(C3CCC3)cnc2N2CCCC(F)(F)CC2)c1` [Example 159, 5-cyclobutyl-2-(4,4-difluoroazepan-1-yl)-N-(3-sulfamoylphenyl)nicotinamide] came in with an IC50 of 2.5 nM.
The figure for `CS(=O)(=O)c1cccc(NC(=O)c2cc(Cl)cnc2N2CCCC(F)(F)CC2)c1` [Example 173, 5-chloro-2-(4,4-difluoroazepan-1-yl)-N-(3-(methylsulfonyl)phenyl)nicotinamide] is 7.8 nM; for `Cc1nc(N2CCCC(F)(F)CC2)c(C(=O)N(C)c2cccc(S(N)(=O)=O)c2)c(C)c1Cl` [Example 179, 5-chloro-2-(4,4-difluoroazepan-1-yl)-N,4,6-trimethyl-N-(3-sulfamoylphenyl)nicotinamide] it is 873 nM.
The figure for `NC(=O)c1cccc(NC(=O)c2cc(C(F)(F)F)cnc2N2CCCC(F)(F)C2)c1` [Example 110, N-(3-carbamoylphenyl)-2-(3,3-difluoro-1-piperidyl)-5-(tri-fluoromethyl)pyridine-3-carboxamide] is 3770 nM; for `NC(=O)c1cccc(NC(=O)c2cc(Br)cnc2N2CCCCCC2)c1` [Example 38, 2-(azepan-1-yl)-5-bromo-N-(3-carbamoyl-phenyl)pyridine-3-carboxamide] it is 279 nM.
As to `CS(=O)(=O)c1cccc(NC(=O)c2cc(C(F)(F)F)cnc2N2CCc3ccccc3C2)c1` [Example 98, 2-(3,4-dihydro-1H-isoquinolin-2-yl)-N-(3-methylsulfonylphenyl)-5-(trifluoromethyl)-pyridine-3-carboxamide], the IC50 is 93 nM.
Regarding `CC1CN(c2ncc(C(F)(F)F)cc2C(=O)Nc2ccc3c(c2)S(=O)(=O)NC3)CCC1(F)F` (single isomer, unassigned) [Example 112, 2-[(3R or 3S)-4,4-difluoro-3-methyl-1-piperidyl]-N-(1,1-dioxo-2,3-dihydro-1,2-benzothiazol-6-yl)-5-(trifluoromethyl) pyridine-3-carboxamide], the midpoint of inhibition, the IC50, lay at 72 nM.
The figure for `NS(=O)(=O)c1cc(NC(=O)c2cc(C(F)(F)F)cnc2N2CCCCC2)ccc1F` [Example 115, N-(4-fluoro-3-sulfamoyl-phenyl)-2-(1-piperidyl)-5-(trifluoro-methyl)pyridine-3-carboxamide] is 567 nM; for `COc1ccc(C(=O)Nc2cccc(S(N)(=O)=O)c2)c(N2CCCCCC2)n1` [Example 91, 2-(azepan-1-yl)-6-methoxy-N-(3-sulfamoyl-phenyl)pyridine-3-carboxamide] it is 29 nM.
With `Cc1nc(N2CCCCCC2)c(C(=O)Nc2cccc(S(N)(=O)=O)c2)cc1C(F)(F)F` [Example 168, 2-(azepan-1-yl)-6-methyl-N-(3-sulfamoylphenyl)-5-(trifluoromethyl)nicotinamide] the figure was 3.2 nM; with `Cc1nc(N2CCCCCC2)c(C(=O)Nc2cccc(S(C)(=O)=O)c2)c(C)c1Cl` [Example 7, 2-(azepan-1-yl)-5-chloro-4,6-dimethyl-N-(3-methylsulfonyl-phenyl)pyridine-3-carboxamide], 3.5 nM.
The figure for `C=CCCc1cnc(N2CCCC(F)(F)CC2)c(C(=O)Nc2cccc(S(N)(=O)=O)c2)c1` [Example 161, 5-(but-3-en-1-yl)-2-(4,4-difluoroazepan-1-yl)-N-(3-sulfamoylphenyl)nicotinamide] is 3.2 nM; for `NS(=O)(=O)c1cccc(NC(=O)c2cc(C(F)(F)F)cnc2N2CC3(CCOCC3)C2)c1` [Example 81, 2-(7-oxa-2-azaspiro[3.5]nonan-2-yl)-N-(3-sulfamoyl-phenyl)-5-(trifluoro-methyl)nicotinamide] it is 4240 nM; for `Cc1c(F)c(Cl)nc(N2CCCCCC2)c1C(=O)Nc1cccc(S(N)(=O)=O)c1` [Example 3, 2-(azepan-1-yl)-6-chloro-5-fluoro-4-methyl-N-(3-sulfamoyl-phenyl)pyridine-3-carboxamide] it is 7.6 nM.
With `NS(=O)(=O)c1cccc(NC(=O)c2cc(C(F)(F)F)cnc2N2CCC(C(F)F)CC2)c1` [Example 50, 2-[4-(difluoromethyl)-1-piperidyl]-N-(3-sulfamoylphenyl)-5-(trifluoromethyl)-pyridine-3-carboxamide], the IC50 worked out at 239 nM.
With `NS(=O)(=O)c1cccc(NC(=O)c2cc(C(F)(F)F)cnc2N2CCS(=O)(=O)CC2)c1` [Example 70, 2-(1,1-dioxo-1,4-thiazinan-4-yl)-N-(3-sulfamoylphenyl)-5-(trifluoromethyl)pyridine-3-carboxamide] the figure was 5480 nM; with `Cc1c(Cl)nc(N2CCCCCC2)c(C(=O)Nc2cccc(S(N)(=O)=O)c2)c1C` [Example 174, 2-(azepan-1-yl)-6-chloro-4,5-dimethyl-N-(3-sulfamoylphenyl)-pyridine-3-carboxamide], 6 nM.
The figure for `Cc1cc(Cl)nc(N2CCCC(F)(F)CC2)c1C(=O)Nc1cccc(C(N)=O)c1` [Example 17, N-(3-carbamoyl-phenyl)-6-chloro-2-(4,4-difluoroazepan-1-yl)-4-methyl-pyridine-3-carboxamide] is 29 nM.
The figure for `CS(=O)(=O)c1cccc(NC(=O)c2cc(C(F)(F)F)cnc2N2CCC3OCCC32)c1` (centres unmarked) [Example 104, 2-(2,3,3a,5,6,6a-hexahydrofuro[3,2-b]pyrrol-4-yl)-N-(3-methylsulfonylphenyl)-5-(trifluoromethyl) pyridine-3-carboxamide] is 7330 nM.
Compound `Cc1cc(Cl)nc(N2CCCCCC2)c1C(=O)Nc1cccc(S(N)(=O)=O)c1` [Example 29, 2-(azepan-1-yl)-6-chloro-4-methyl-N-(3-sulfamoylphenyl)nicotinamide] gave an IC50 of 10 nM.
Consider `C[Si](C)(C)c1cc(C(=O)Nc2cccc(S(N)(=O)=O)c2)c(N2CCCCCC2)nc1OC(F)(F)F` [Example 85, 2-(azepan-1-yl)-N-(3-sulfamoylphenyl)-6-(trifluoromethoxy)-5-(trimethylsilyl)nicotinamide], for which it took 1220 nM to reach half-maximal inhibition (IC50).
The figure for `Cc1cc(Cl)nc(N2CCCC(F)(F)CC2)c1C(=O)Nc1cccc(S(C)(=O)=O)c1` [Example 8, 6-chloro-2-(4,4-difluoroazepan-1-yl)-4-methyl-N-(3-methyl-sulfonylphenyl)pyridine-3-carboxamide] is 5.8 nM; for `Cc1nc(N2CCC(F)(F)CC2)c(C(=O)Nc2cccc(C#N)c2)c(C)c1Cl` [Example 20, 5-chloro-N-(3-cyanophenyl)-2-(4,4-difluoro-1-piperidyl)-4,6-dimethyl-pyridine-3-carboxamide] it is 74 nM.
The figure for `COC1CCCN(c2ncc(C(F)(F)F)cc2C(=O)Nc2cccc(S(N)(=O)=O)c2)CC1` (centres unmarked) [Example 49, 2-(4-methoxyazepan-1-yl)-N-(3-sulfamoyl-phenyl)-5-(trifluoro-methyl)pyridine-3-carboxamide] is 186 nM; for `NS(=O)(=O)c1cccc(NC(=O)c2cc(C(F)(F)F)cnc2N2CCCC3(C2)CC3(F)F)c1` (single isomer, unassigned) [Example 127, 2-[(3R or 3S)-2,2-difluoro-5-azaspiro[2.5]-octan-5-yl]-N-(3-sulfamoylphenyl)-5-(trifluoromethyl)-pyridine-3-carboxamide] it is 110 nM; for `CS(=O)(=O)c1cccc(NC(=O)c2cc(C(F)(F)F)cnc2N2CCC(c3ccccc3)CC2)c1` [Example 105, N-(3-methylsulfonylphenyl)-2-(4-phenyl-1-piperidyl)-5-(trifluoro-methyl)pyridine-3-carboxamide] it is 8720 nM.
